{"source": "patent US12544431B2", "about": "“Peptides for the treatment of cancer and/or metastasis” (BCN PEPTIDES, S.A., priority 2019, dated 2026)", "key": {"[1]": {"system": "BE(2)-C neuroblastoma cells", "experiment": "Transwell invasion assay, BE(2)-C cells", "type": "cell-based", "procedure": "(§1) 10^5 RH30 or RD cells were plated in the upper chamber of a Matrigel-coated transwell (Corning) in 0.1 mL medium without FBS. Cells were previously incubated with different concentrations (0 nM, 100 nM, 200 nM, 500 nM and 1000 nM) of the peptides and peptide dimer for 48 hours, being also present in the medium during the cell invasion assay. In the lower chamber, 0.6 mL of medium with FBS was added. Cells were incubated at 37° ° C. for 24 hours.\n(§2) After that, cells were fixed with 4% paraformaldehyde (Sigma) for 10 minutes, followed by washing with PBS. After removal of the Matrigel and remaining cells from the upper face of the membrane with a cotton swab, the cells present on the lower face were stained with a Hoechst dilution (Sigma) and were counted (5 fields for each well) with an inverted fluorescence microscope Nikon with a 10× objective. All experiments were made in triplicate. In Table 6 the % Invasiveness represents the mean percentage of invasive cells with respect to their controls.\n(§3) The transwell assay with CHLA-90 and BE(2)-C cell lines was done following the same conditions detailed for determining the % of invasiveness in rhabdomyosarcoma cells.\n(§4) The transwell assay with neuroblastoma cell lines (CHLA-90, BE(2)-C and SK—N-BE(2)-C)) and breast cancer cell lines (MDA-MB-231 and MDA-MB-468) was performed at the same conditions detailed for determining the % of invasiveness in rhabdomyosarcoma cells."}, "[2]": {"experiment": "In vitro stability, half-life in human plasma", "type": "in vitro ADME", "details": "90% human plasma, 37° C., RP-HPLC; read-out: t½ (hours) in human plasma (converted)", "procedure": "The peptides and peptide dimer synthesized and prepared in accordance with Example 1 were dissolved in water at a concentration of 6 mg/mL and warmed up to 37° C.\nHuman plasma was obtained as a lyophilized solid (K3 EDTA Plasma, BBI Solutions, code S112-1), reconstituted with sterile 0.9% sodium chloride solution and stored at −20° C. Human plasma was thawed and incubated at 37° C. before use.\nThe peptides and peptide dimer were incubated in 90% human plasma at 37° C. for different times and then precipitated with two volume equivalents of methanol. The samples were cooled in an acetone-carbon dioxide bath for a few seconds and centrifuged for 12 minutes at 4° C. at approximately 10,000 rpm. The supernatant was filtered with a 0.45 μm PVDF filter and analyzed in triplicate by RP-HPLC using an isocratic method (Eluent A=0.1% TFA in water; Eluent B=0.07% TFA in ACN, Column=Kromasil C8, 100 Å, 5 μm, 250×4.6 mm, Flow=1 mL/min, Wavelength: 220 nm, Injection volume=20 μL, Temperature=60° C.). The disappearance of the compound was determined in relation to the area of the initial time to calculate its half-life."}, "[3]": {"system": "RD rhabdomyosarcoma cells", "experiment": "Matrigel-coated transwell invasion assay, RD cells", "type": "cell-based", "details": "% invasive cells vs non-treated control", "procedure": "as §1, §2"}, "[4]": {"system": "RH30 rhabdomyosarcoma cells", "experiment": "Matrigel-coated transwell invasion assay, RH30 cells", "type": "cell-based", "details": "% invasive cells vs non-treated control", "procedure": "as §1, §2"}, "[5]": {"system": "CHLA-90 neuroblastoma cells", "experiment": "Transwell invasion assay, CHLA-90 cells", "type": "cell-based", "procedure": "as §1, §2, §3, §4"}, "[6]": {"system": "RD rhabdomyosarcoma cells", "experiment": "Rhabdomyosarcoma metastatic mice model (RD cells i.v. in tail vein)", "type": "in vivo, SCID/Beige mice", "details": "for event-free survival vs vehicle group (in words): 27-week study; for Absence of metastases, number of mice / Absence of metastases, percentage of mice / Presence of metastases (%), percentage of mice / Presence of metastases, number of mice: 27 weeks; for body weight, treated vs vehicle-treated mice (in words): along the 27-week study; for reduction in metastases formation: vs PBS-treated mice", "procedure": "SCID/Beige female mice aged of 5 weeks were administered subcutaneously (s.c.) at day −1 with the first dose of treatment i.e. the vehicle (PBS, Phosphate buffered saline) or the peptides. On day 0, mice were injected intravenously (i.v.) in the tail vein with 2×10^6 RD rhabdomyosarcoma cells.\nBody weight was evaluated twice per week for 27 weeks. Overall survival and event-free survival were determined. At necropsy, the total number of metastases were quantified and the number of metastases per mice and their localization were also reported."}, "[7]": {"details": "500 nM peptide, listed as SEQ ID NO: 6—NH2"}, "[8]": {"details": "0.5 mg/kg s.c. three times per week"}, "[9]": {"details": "2 mg/kg s.c. three times per week"}}, "note": "“Also recorded” adds a separate entry of the source. Marks after values point to notes of the source that are not given here. *1 amine or outer side, *2 acyl side, *3 side chain or, on linkers, in order; H or OH if unused. Where a SMILES comes first, the peptide text is derived from it. [ ]: non-standard residue; d: D form. Phe(2,4,6-Me3) = Cc1cc(C)c(C[C@H](N)C(=O)O)c(C)c1; X1 = Cc1cc(C)c(CC(N[*:1])C(=O)[*:2])c(C)c1; pGlu = O=C1CC[C@@H](C(=O)O)N1", "data": [{"smiles": "Cc1cc(C)c(C[C@H](NC(=O)[C@H](CCC(=O)O)NC(=O)[C@@H]2CCCN2C(=O)[C@H](CC(C)C)NC(=O)[C@H](CC(=O)O)NC(=O)[C@H](CS)NC(=O)[C@H](CO)NC(=O)[C@H](CC(N)=O)NC(=O)[C@H](CO)NC(=O)[C@H](CO)NC(=O)[C@H](CC(=O)O)NC(=O)[C@H](CCCNC(=N)N)NC(=O)[C@H](CCCCN)NC(=O)[C@@H]2CCC(=O)N2)C(=O)N[C@@H](CCCCN)C(N)=O)c(C)c1", "note": "[SEQ ID NO: 6-NH2, Pyr-Lys-Arg-Asp-Ser-Ser-Asn-Ser-Cys-Asp-Leu-Pro-Glu-Msa-Lys-NH2] ([pGlu]KRDSSNSCDLPE[Phe(2,4,6-Me3)]K-NH2)", "values": [{"measurement": "% Invasiveness BE(2)-C", "setting": "[1]; 100 nM peptide", "result": 60.08, "unit": "%"}, {"measurement": "% Invasiveness BE(2)-C", "setting": "[1]; 200 nM peptide", "result": 59.04, "unit": "%"}, {"measurement": "% Invasiveness BE(2)-C", "setting": "[1]; 500 nM peptide", "result": "31.17* %"}, {"measurement": "% Invasiveness BE(2)-C", "setting": "[1]; [7]", "result": "significant reductions"}, {"measurement": "% Invasiveness BE(2)-C", "setting": "[1]; 1000 nM peptide", "result": "23.54* %"}, {"measurement": "half-life at 0.6 mg/mL", "setting": "[2]", "result": 0.17, "unit": "h"}, {"measurement": "% Invasiveness RD", "setting": "[3]; 100 nM peptide", "result": 39.45, "unit": "%"}, {"measurement": "% Invasiveness RD", "setting": "[3]; 500 nM peptide", "result": 39.98, "unit": "%"}, {"measurement": "% Invasiveness RH30", "setting": "[4]; 100 nM peptide", "result": 54.67, "unit": "%"}, {"measurement": "% Invasiveness RH30", "setting": "[4]; 500 nM peptide", "result": "22.77* %"}, {"measurement": "% Invasiveness RH30", "setting": "[4]; [7]", "result": "significant reduction"}, {"measurement": "% Invasiveness CHLA-90", "setting": "[5]; 100 nM peptide", "result": 75.90, "unit": "%"}, {"measurement": "% Invasiveness CHLA-90", "setting": "[5]; 200 nM peptide", "result": "55.22* %"}, {"measurement": "% Invasiveness CHLA-90", "setting": "[5]; 200 nM peptide, listed as SEQ ID NO: 6—NH2", "result": "significant reductions"}, {"measurement": "% Invasiveness CHLA-90", "setting": "[5]; 500 nM peptide", "result": "44.58* %"}, {"measurement": "% Invasiveness CHLA-90", "setting": "[5]; 1000 nM peptide", "result": "49.00* %"}, {"measurement": "event-free survival vs vehicle group (in words)", "setting": "[6]; 0.5 mg/kg (lower dose), listed as SEQ ID NO: 6—NH2", "result": "did not show a significant effect"}, {"measurement": "event-free survival vs vehicle group (in words)", "setting": "[6]; 0.5 mg/kg (lower dose), listed as SEQ ID NO:6—NH2", "result": "did not show statistically significant difference"}, {"measurement": "Absence of metastases, number of mice", "setting": "[6]; [8]", "result": 1}, {"measurement": "Absence of metastases, percentage of mice", "setting": "[6]; [8]", "result": 17, "unit": "%"}, {"measurement": "Presence of metastases (%), percentage of mice", "setting": "[6]; [8]", "result": 83, "unit": "%"}, {"measurement": "Presence of metastases, number of mice", "setting": "[6]; [8]", "result": 5}, {"measurement": "body weight, treated vs vehicle-treated mice (in words)", "setting": "[6]; 0.5 mg/kg", "result": "vehicle-treated mice showed a statistically significant lower body weight"}, {"measurement": "reduction in metastases formation", "setting": "[6]; 0.5 mg/kg", "result": "~15", "unit": "%"}, {"measurement": "number of metastases per mouse vs vehicle (in words)", "setting": "[6]; 2 mg/kg (higher dose), at necropsy", "result": "statistically reduced the formation of metastases per mouse; also recorded: efficacious in the reduction of the number of metastases"}, {"measurement": "Absence of metastases, number of mice", "setting": "[6]; [9]", "result": 1}, {"measurement": "Absence of metastases, percentage of mice", "setting": "[6]; [9]", "result": 14, "unit": "%"}, {"measurement": "Presence of metastases (%), percentage of mice", "setting": "[6]; [9]", "result": 86, "unit": "%"}, {"measurement": "Presence of metastases, number of mice", "setting": "[6]; [9]", "result": 6}, {"measurement": "event-free survival vs vehicle group (in words)", "setting": "[6]; 2 mg/kg, Log-rank", "result": "did not show statistically significant difference"}, {"measurement": "body weight, treated vs vehicle-treated mice (in words)", "setting": "[6]; 2 mg/kg", "result": "vehicle-treated mice showed a statistically significant lower body weight"}, {"measurement": "reduction in metastases formation", "setting": "[6]; 2 mg/kg", "result": "~15", "unit": "%"}]}, {"smiles": "CC(=O)N[C@@H](CCCCN)C(=O)N[C@@H](CCCNC(=N)N)C(=O)N[C@@H](CC(=O)O)C(=O)N[C@@H](CO)C(=O)N[C@@H](CO)C(=O)N[C@@H](CC(N)=O)C(=O)N[C@@H](CO)C(=O)N[C@@H](CS)C(=O)N[C@@H](CC(=O)O)C(=O)N[C@@H](CC(C)C)C(=O)N1CCC[C@H]1C(=O)N[C@@H](CCC(=O)O)C(=O)NC(Cc1c(C)cc(C)cc1C)C(=O)N[C@@H](CCCCN)C(N)=O", "note": "(stereo partly drawn) [Ac-SEQ ID NO: 5-NH2, Ac-Lys-Arg-Asp-Ser-Ser-Asn-Ser-Cys-Asp-Leu-Pro-Glu-Msa-Lys-NH2] (Ac-KRDSSNSCDLPE[X1]K-NH2)", "values": [{"measurement": "half-life at 0.6 mg/mL", "setting": "[2]", "result": 0.23, "unit": "h"}, {"measurement": "% Invasiveness RD", "setting": "[3]; 100 nM peptide", "result": 100.80, "unit": "%"}, {"measurement": "% Invasiveness RD", "setting": "[3]; 500 nM peptide", "result": 35.59, "unit": "%"}, {"measurement": "% Invasiveness RH30", "setting": "[4]; 100 nM peptide", "result": "24.83* %"}, {"measurement": "% Invasiveness RH30", "setting": "[4]; 100 nM peptide, listed as Ac-SEQ ID NO: 5—NH2", "result": "significant reduction"}, {"measurement": "% Invasiveness RH30", "setting": "[4]; 500 nM peptide", "result": "18.49* %"}]}]}
